Test results from US6359008B1, “Acylated aminoacids for increasing the uptake of selected substances by organisms” (Lovesgrove Research Limited, priority 1998, dated 2002).

Legend:
Rainbow Trout = test: Field trial of Corbinol as pigment adsorption enhancer in fish feed; format: in vivo
Method: A field trial was conducted at a fish farm facility adjacent to the Rheidol hydroelectric station to establish a preliminary indication of the efficacy of Corbinol comprising 75 g palmitoylaminoproprionic acid with 925 g of silica talc carrier as a pigment adsorption enhancer. Approximately 250 Rainbow Trout were divided into two groups and held in separate tanks each 4 m×4 m×1 m. The fish were hand fed for a duration of 4 weeks, the diets for the two groups being: Control: Mainstream Trout Hi-Performance 40 Treated: Mainstream Trout Hi-Performance+Corbinol (1 kg/tonne) At the end of the trial 100 farm fish from each group were removed and individually weighed. Equal levels of flesh samples were bulked together forming 10 groups of 10 for both the control and treated diets. HPLC analysis was conducted using a Merck-Hitachi L-4250 UV-Vis detector following an isocratic method referred to in a Roche Ltd publication.

[1] = Heat stability of the compound; format: physicochemical
Source text: The high polar head group appears to provide the bio-activity of the compound without having to incorporate a phosphonic group therein.

- heat stable to [1]: approximately 130 °C
Compound: CCCCCCCCCCCCCCCC(=O)NC(C)C(=O)O (centres unmarked) [2-palmitoylaminoproprionic acid]
- uptake of selected compounds, in particular pigments, in organisms such as fish (Rainbow Trout): increase the uptake of selected compounds
